Laboratory results taken from patent US20250144067A1, “PERSONALIZED STARVATION THERAPY FOR CANCER” (Faeth Therapeutics, Inc., priority 2021, published 2025).
Structures can show the parent of a compound that is named as a salt.

How the values were obtained:
[1] = tested on: NCI-H292 lung cancer cells; assay: FDA drug screening, complete media vs cholesterol-free media without statin (TABLE 1); type: cell-based, human
[2] = tested on: NCI-H292 lung cancer cells; assay: FDA drug screening, complete media vs cholesterol-free media with simvastatin (TABLE 2); type: cell-based, human; conditions: for Cholesterol-free media + simvastatin (0.04 μM) / Complete Media: NCI-H292 cells
[3] = Complete minus Cholesterol-free, >0 enhanced anti-cancer activity, about 0 neutral, <0 antagonist
[4] = NCI-H292 cells, cholesterol-free media without statin
[5] = cholesterol-free media with simvastatin 0.04 μM, cell growth value in FDA drug screen
[6] = complete media, cell growth value in FDA drug screen
[7] = complete media minus cholesterol-free media + simvastatin, >0 enhanced anti-cancer activity, about 0 neutral, <0 antagonist
[8] = NCI-H292 cells, cholesterol-free media without statin, FDA drug library screen
[9] = NCI-H292 cells, complete media, FDA drug library screen
[10] = FDA drug library screen, cholesterol-free media with simvastatin 0.04 μM
[11] = FDA drug library screen, complete media
[12] = complete vs cholesterol-free media, greater than 0 enhanced anti-cancer activity, about 0 neutral, below 0 antagonists
[13] = drug in cholesterol-free media with simvastatin 0.04 μM
[14] = complete media vs cholesterol-free media + simvastatin (0.04 μM), >0 enhanced anti-cancer activity, about 0 neutral, <0 antagonist
[15] = Complete minus Cholesterol-free, greater than 0 enhanced anti-cancer activity, about 0 neutral, below 0 antagonists
[16] = NCI-H292 cells in cholesterol-free media without statin
[17] = NCI-H292 cells in complete media
[18] = Complete minus Cholesterol-free, […]
[19] = cholesterol-free media with simvastatin 0.04 μM, FDA drug library screen (TABLE 2)
[20] = complete media, FDA drug library screen (TABLE 2)
[21] = complete media vs cholesterol-free media + simvastatin (0.04 μM), […]
[22] = Complete minus Cholesterol-free, greater than 0 enhanced anti-cancer activity, about 0 neutral, below 0 antagonist
[23] = NCI-H292 cells, FDA drug library screen, cholesterol-free media without statin
[24] = NCI-H292 cells, FDA drug library screen, complete media

Compound: CCCC(=O)O[C@]1(C(=O)COC(C)=O)CC[C@H]2[C@@H]3C[C@H](F)C4=CC(=O)C=C[C@]4(C)[C@@]3(F)[C@@H](O)C[C@@]21C [Difluprednate]
- Difference [1, 3]: −0.21
- Cholesterol-free [1, 4]: 0.9273
- Complete ([1]; NCI-H292 cells, complete media): 0.7168
- Cholesterol-free media + simvastatin (0.04 μM) [2, 5]: 1.197
- Complete Media [2, 6]: 1.264
- Difference [2, 7]: 0.07

Compound: O=C(O)/C=C/c1ccc(Cn2ccnc2)cc1 [Ozagrel]
- Difference [1, 3]: −0.04
- Cholesterol-free [1, 8]: 1.079
- Complete [1, 9]: 1.034
- Cholesterol-free media + simvastatin (0.04 μM) [2, 10]: 1.504
- Complete Media [2, 11]: 1.942
- Difference [2, 7]: 0.44

Compound: COc1cc(C(C)=O)ccc1OCCCN1CCC(c2noc3cc(F)ccc23)CC1 [Iloperidone]
- Difference [1, 3]: −0.06
- Complete [1, 9]: 0.8863
- Cholesterol-free media + simvastatin (0.04 μM) [2, 10]: 0.9523
- Complete Media [2, 11]: 1.134
- Difference [2, 7]: 0.18

Compound: O=C(O)P(=O)(O)O [Foscarnet (sodium)]
- Cholesterol-free [1, 4]: 1.261
- Complete ([1]; NCI-H292 cells, complete media): 0.9196
- Difference [1, 12]: −0.34
- Cholesterol-free media + simvastatin (0.04 μM) [2, 13]: 1.224
- Complete Media ([2]; drug in complete media): 1.051
- Difference [2, 14]: −0.17

Compound: Danofloxacin (mesylate)
- Difference [1, 15]: −0.77
- Cholesterol-free [1, 16]: 1.786
- Complete [1, 17]: 1.013
- Cholesterol-free media + simvastatin (0.04 μM) [2, 5]: 0.9788
- Complete Media [2, 6]: 1.081
- Difference [2, 7]: 0.10

Compound: CN1CCC(=C2c3ccccc3Sc3ccccc32)CC1 [Pimethixene maleate]
- Cholesterol-free [1, 4]: 1.492
- Complete ([1]; NCI-H292 cells, complete media): 1.142
- Difference [1, 12]: −0.35
- Cholesterol-free media + simvastatin (0.04 μM) [2, 13]: 1.097
- Complete Media ([2]; drug in complete media): 0.9153
- Difference [2, 14]: −0.18

Compound: (−)-Huperzine A
- Difference [1, 18]: 0.00
- Cholesterol-free [1, 8]: 1.621
- Complete [1, 9]: 1.617
- Cholesterol-free media + simvastatin (0.04 μM) [2, 19]: 1.198
- Complete Media [2, 20]: 1.208
- Difference ([2]; complete media minus cholesterol-free media + simvastatin (0.04 μM), […]): 0.01

Compound: Streptomycin (sulfate)
- Difference [1, 18]: −1.05
- Cholesterol-free [1, 16]: 2.317
- Complete [1, 17]: 1.265
- Cholesterol-free media + simvastatin (0.04 μM) [2, 13]: 1.77
- Complete Media ([2]; drug in complete media): 1.586
- Difference [2, 21]: −0.18

Compound: Cc1ccc2c(c1)c1c(n2CCc2ccc(C)nc2)CCN(C)C1 [Latrepirdine (dihydrochloride)]
- Difference [1, 15]: −0.58
- Cholesterol-free [1, 16]: 1.66
- Complete [1, 17]: 1.083
- Cholesterol-free media + simvastatin (0.04 μM) [2, 5]: 1.036
- Complete Media [2, 6]: 1.07
- Difference [2, 7]: 0.03

Compound: CN(C)c1cc(CNCC(C)(C)C)c(O)c2c1C[C@H]1C[C@H]3[C@H](N(C)C)C(O)=C(C(N)=O)C(=O)[C@@]3(O)C(O)=C1C2=O [Omadacycline (hydrochloride)]
- Difference [1, 22]: −0.15
- Cholesterol-free [1, 23]: 1.103
- Complete [1, 24]: 0.9531
- Cholesterol-free media + simvastatin (0.04 μM) [2, 10]: 1.209
- Complete Media [2, 11]: 1.089
- Difference [2, 14]: −0.12

Compound: NCC1(CC(=O)O)CCCCC1 [Gabapentin]
- Difference [1, 18]: −0.30
- Cholesterol-free [1, 4]: 1.237
- Complete ([1]; NCI-H292 cells, complete media): 0.9357
- Cholesterol-free media + simvastatin (0.04 μM) [2, 10]: 1.126
- Complete Media [2, 11]: 1.036
- Difference [2, 21]: −0.09

Compound: Cc1c(NC(=O)c2cccnc2)c(=O)n(-c2ccccc2)n1C [Nifenazone]
- Difference [1, 15]: −0.66
- Cholesterol-free [1, 16]: 1.466
- Complete [1, 17]: 0.8088
- Cholesterol-free media + simvastatin (0.04 μM) [2, 5]: 0.9965
- Complete Media [2, 6]: 1.032
- Difference [2, 7]: 0.04

Compound: OC[C@H]1NC[C@H](O)[C@@H](O)[C@H]1O [Migalastat (hydrochloride)]
- Difference [1, 18]: −0.53
- Cholesterol-free [1, 16]: 1.45
- Complete [1, 17]: 0.9162
- Cholesterol-free media + simvastatin (0.04 μM) ([2]; cholesterol-free media with simvastatin 0.04 μM, […]): 0.7275
- Complete Media ([2]; complete media, […]): 0.7465
- Difference ([2]; complete media minus cholesterol-free media + simvastatin, […]): 0.02

Compound: CCOC(=O)c1c(CSc2ccccc2)n(C)c2cc(Br)c(O)c(CN(C)C)c12 [Umifenovir (hydrochloride)]
- Cholesterol-free [1, 4]: 1.088
- Complete ([1]; NCI-H292 cells, complete media): 0.7625
- Difference [1, 12]: −0.33
- Cholesterol-free media + simvastatin (0.04 μM) [2, 10]: 0.9009
- Complete Media [2, 11]: 1.225
- Difference [2, 7]: 0.32

Compound: NCCS [Cysteamine hydrochloride]
- Cholesterol-free [1, 8]: 1.255
- Complete [1, 9]: 1.431
- Difference ([1]; complete vs cholesterol-free media, >0 enhanced anti-cancer activity, about 0 neutral, <0 antagonist): 0.18
- Cholesterol-free media + simvastatin (0.04 μM) [2, 10]: 0.9975
- Complete Media [2, 11]: 0.86
- Difference [2, 14]: −0.14

Compound: COC(=O)CCC(=O)CN [Methyl aminolevulinate (hydrochloride)]
- Difference [1, 15]: −0.59
- Cholesterol-free [1, 16]: 1.473
- Complete [1, 17]: 0.886
- Cholesterol-free media + simvastatin (0.04 μM) [2, 10]: 1.272
- Complete Media [2, 11]: 1.627
- Difference [2, 7]: 0.35

Compound: CC(=O)SCC(Cc1ccccc1)C(=O)NCC(=O)OCc1ccccc1 (centres unmarked) [Racecadotril]
- Cholesterol-free [1, 4]: 1.294
- Complete ([1]; NCI-H292 cells, complete media): 0.8911
- Difference [1, 12]: −0.40
- Cholesterol-free media + simvastatin (0.04 μM) [2, 13]: 1.092
- Complete Media ([2]; drug in complete media): 0.8523
- Difference [2, 14]: −0.24

Compound: CN(C)c1ccc2nc3ccc(=[N+](C)C)cc-3sc2c1 [Methylene blue (trihydrate)]
- Difference [1, 22]: −0.18
- Cholesterol-free [1, 23]: 0.4339
- Complete [1, 24]: 0.2574
- Cholesterol-free media + simvastatin (0.04 μM) [2, 5]: 0.3366
- Complete Media [2, 6]: 0.39
- Difference [2, 7]: 0.05

Compound: C#CCN[C@H]1CCc2ccccc21 [(S)-Rasagiline]
- Difference [1, 3]: 0.05
- Cholesterol-free [1, 8]: 1.001
- Complete [1, 9]: 1.048
- Cholesterol-free media + simvastatin (0.04 μM) ([2]; FDA library drug in cholesterol-free media with simvastatin 0.04 μM): 1.283
- Complete Media ([2]; FDA library drug in complete media): 0.8996
- Difference [2, 14]: −0.38

Compound: NCCCC[C@H](N)C(=O)O.O=C(O)COc1nn(Cc2ccccc2)c2ccccc12 [Bendazac L-Lysine]
- Cholesterol-free [1, 8]: 0.6107
- Complete [1, 9]: 1.115
- Difference ([1]; complete vs cholesterol-free media, […]): 0.50
- Cholesterol-free media + simvastatin (0.04 μM) [2, 10]: 1.079
- Complete Media [2, 11]: 0.922
- Difference [2, 21]: −0.16

Compound: Carbinoxamine maleate salt
- Difference [1, 3]: −0.20
- Cholesterol-free [1, 4]: 1.129
- Complete ([1]; NCI-H292 cells, complete media): 0.9247
- Cholesterol-free media + simvastatin (0.04 μM) [2, 10]: 0.757
- Complete Media [2, 11]: 1.12
- Difference [2, 7]: 0.36

Compound: COc1ccccc1Oc1c(NS(=O)(=O)c2ccc(C(C)(C)C)cc2)nc(-c2ncccn2)nc1OCCO [Bosentan (hydrate)]
- Difference [1, 22]: −0.13
- Cholesterol-free [1, 23]: 1.31
- Complete [1, 24]: 1.181
- Cholesterol-free media + simvastatin (0.04 μM) [2, 19]: 1.256
- Complete Media [2, 20]: 1.269
- Difference ([2]; complete media minus cholesterol-free media + simvastatin (0.04 μM), >0 enhanced anti-cancer activity, about 0 neutral, <0 antagonist): 0.01

Compound: CCOc1nc2cccc(C(=O)OCc3oc(=O)oc3C)c2n1Cc1ccc(-c2ccccc2-c2noc(=O)[nH]2)cc1 [Azilsartan medoxomil]
- Difference [1, 15]: −0.49
- Cholesterol-free [1, 16]: 1.119
- Complete [1, 17]: 0.6328
- Cholesterol-free media + simvastatin (0.04 μM) [2, 10]: 1.394
- Complete Media [2, 11]: 1.269
- Difference [2, 14]: −0.12
